Data set [1] in a line: DBP products in mice liver mitochondria before and after DBPs treatment, HPTLC. It is filed as in vivo, Swiss Albino mice. The note with it: one hour after i.p. 4:1 mixture of 3,8-(OH)2-DBP and 3-OH-DBP 20 mg/Kg. The procedure: Mitochondria were isolated from heart and liver of chicken, goat and mice following a published procedure (Liu Y, Deng F, Zhao R and Qu S, Chemosphere, 40(8):851-854, 2000). […] The tissue was cut into small pieces, homogenized and centrifuged at 900 g for one minute. The supernatant was again centrifuged twice, for 20 minutes each time at 900 g. The sediment at each step was discarded. The clear supernatant was centrifuged twice at 12,000 g, 20 minutes each time, to form pellets of a mitochondria-enriched fraction. The fraction was divided into two parts. One part was resuspended in a measured volume of distilled water and sonicated (10 min×2). […] The two extracts were subjected to comprehensive HPTLC and HPLC analyses for detection and quantitation of DBPs and their equivalents. […] One hour after administration the animals were sacrificed and mitochondria from liver were isolated and analyzed as described for Example 6. […] Mobile Phase—Chloroform:Methanol 90:10 Sample application—CAMAG LINOMAT 5 (Automated applicator) Detection—240 nm (CAMAG TLC SCANNER 3) 3-OH-DBP and 3,8-(OH)2-DBP (and their conjugates) were detected in mitochondria of control mice by HPTLC. Administration of DBPs to the animals increased the amount of DBPs and its products in mitochondria as detected by using authentic markers of the two DBPs (Table 2).

Data set [2] can be described thus: Stability of reduced CoQ10 (CoQH2) by 3,8-(OH)2-DBP at different pH, HPLC. It is filed as physicochemical. As to conditions: for Reduced CoQ10 remaining in control: no DBP. The protocol: Two mg of solid CoQ10 (SRL, India), in an airtight vial was dissolved in 1 ml of methanol. After thorough vortexing, 5 mg of solid NaBH4 (Merck India) was added, 1 mg at a time, to the yellow colored solution of CoQ10 in methanol and kept in an ice-bath for a few minutes. The vial was kept shut to avoid contact with air but opened occasionally to avoid generation of pressure inside due to accumulation of hydrogen. After the reduction reaction, a clear colorless solution was obtained to which methanolic solution of 3,8-(OH)2-DBP with a concentration of 1 mg/ml (>90% pure) was added in a ratio of 1:1 to obtain a final concentration of the mixture—reduced CoQ10 […] DBP 0.5 mg/ml. This solution was analyzed by HPLC for reduced CoQ10 content at different time intervals. A control was prepared in similar fashion except that no DBP was added. The pH of the solutions was determined to be 8 using pH paper. To obtain solutions of reduced CoQ10 with pH 7 and pH 3, aliquots of concentrated HCl were added to the methanolic solution of reduced CoQ10 at pH 8. Afterwards, a solution of DBP was added and analysis by HPLC at different time intervals was conducted, as before.
(§1) Mobile phase—Methanol:Acetonitrile:Ethanol 30:30:40
Detection—PDA 290 nm for reduced CoQ10

The nature of data set [3]: Inhibition of CoQ-CoQH2 aberrant metabolite formation during red-ox recycling, HPLC. The class given is physicochemical. The note with it: in vitro. The protocol: Methanolic solution of coenzyme Q10 (1 mg/ml) was reduced by NaBH4 to pH 8 when the yellow solution became colorless. About 1 mg of 3,8-(OH)2-DBP was added to the solution and the mixture was analyzed by HPLC at different time intervals (0-80 min). A control CoQ10, without 3,8-(OH)2-DBP, was prepared similarly and analyzed at different time intervals (0-80 min).
Column—NovaPak RP C18 [250×4 mm]
as §1
Detection—PDA 275 nm for CoQ10
Reduced CoQ10 (CoQH2) has a tendency to rapidly autoxidize in the presence of air. […] The aberrant metabolites increased rapidly with time (Table 10).

Data set [4] can be described thus: Stability of reduced CoQ10 (CoQH2) by 3,8-(OH)2-DBP at different pH, HPLC. It is filed as physicochemical.

In the case of `O=c1oc2cc(O)ccc2c2cc(-c3cc4c(cc3O)c(=O)oc3cc(O)ccc34)c(O)cc12` [3,8-(OH)2-DBP-dimer, 3,3′,8,8′-tetrahydroxy-9,9′-bis-dibenzo-α-pyrone], the “Amount in mitochondria after DBP treatment” value in data set [1] was 28.6 nmol/gm wet wt.

On to `COc1c(O)c(C)c(C/C=C(\C)CC/C=C(\C)CC/C=C(\C)CC/C=C(\C)CC/C=C(\C)CC/C=C(\C)CC/C=C(\C)CC/C=C(\C)CC/C=C(\C)CCC=C(C)C)c(O)c1OC` [Reduced CoQ10, reference compound], for which the “Regenerated CoQ10 in absence of 3,8-(OH)2-DBP” value in data set [2] (autoxidation of CoQH2, pH 8, 0 min) was found to be 0 µg/mL; in data set [2] (autoxidation of CoQH2, pH 8, 60 min), 184.68 µg/mL; in data set [2] (autoxidation of CoQH2, pH 8, 80 min), 202.28 µg/mL; in data set [2] (autoxidation of CoQH2, pH 8, 100 min), 109.23 µg/mL; in data set [4] (autoxidation of CoQH2, pH 8, 20 min) it was 5.49 µg/mL; in data set [4] (autoxidation of CoQH2, pH 8, 40 min) it was 72.98 µg/mL. In addition, the “Reduced CoQ10 remaining in control” value in data set [2] (pH 3, 0 hour) is 100.00%; in data set [2] (pH 3, 48 hour), 57.25%; in data set [2] (pH 3, 72 hour) it was 61.95%; in data set [2] (pH 7, 0 hour), 100.00%; in data set [2] (pH 7, 48 hour), 7.73%; in data set [2] (pH 7, 72 hour), 3.70%. For the same compound, the “Reduced CoQ10 remaining in control” value in data set [2] (pH 8, 0 min, methanol) is reported as 100.00%; in data set [2] (pH 8, 40 min, methanol), 79.18%; in data set [2] (pH 8, 60 min, methanol) it was 54.09%; in data set [2] (pH 8, 80 min, methanol), 33.17%; in data set [2] (pH 8, 100 min, methanol) it was 20.87%. In addition, the “Relative percentage of aberrant metabolites in absence of 3,8-(OH)2-DBP” value came to 0% in data set [3] (pH 8, 0 minutes); 93% in data set [3] (pH 8, 40 minutes); 96% in data set [3] (pH 8, 80 minutes).
